Entries after “also recorded” stand apart in the source; their conditions may differ.
Columns and labels:
[1] = target: T1, PAH2 domain of yeast Sin3 (Saccharomyces cerevisiae, UniProt P22579); experiment: Ligand-detected NMR (DLB, STD, CPMG-R2), yeast Sin3 PAH2; type: binding, S. cerevisiae; conditions: 300 μM compound, 10 μM protein
T1 construct: Residues 402-473 of S. cerevisiae Sin3 (PAH2 domain) were inserted into pET28PP, pMALC2XE, and pGEX6P2; made in house; host or cells: E. coli BL21 (DE3)
T1 sequence (P22579 402-473): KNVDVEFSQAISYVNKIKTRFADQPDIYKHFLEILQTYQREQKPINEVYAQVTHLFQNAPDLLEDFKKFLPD
Protocol: (§1) Ligand-detected NMR experiments: all results were acquired using a 3 mm tube at 25° C. on a Bruker 600 MHz Avance II system equipped with a CPPTCI cryoprobe (Bruker BioSpin Corp.). In all experiments, the concentration of E6R was fixed at 300 μM (from a stock of 25 mM in deuterated DMSO) and the concentration of the protein at 10 μM. The volume of deuterated DMSO was kept constant (1.5%) in all tested samples. Right before the experiments, the compound and protein were diluted in 1×PBS containing 0.1% deuterated dithiothreitol (DTT) to a total volume of 200 μL. Samples were diluted by 5% with D2O for magnetic field lock. Spectra were acquired for ligand only, protein only, and ligand+protein. […] STD experiments [Mayer et al 2001] were acquired with 160 scans, with protein irradiation applied for 3 s at 0 ppm and −20 ppm for the on and off resonance experiments, respectively. On and off resonance spectra were collected and stored separately. One-dimensional CPMG-R2 edited experiments [Hajduk et al 1997] were collected for samples with and without proteins using seven CPMG delays (0, 25, 50, 100, 300, 500, and 800 ms) with four scans per delay. Proton spectra used to measure DLB and chemical shift perturbations in the absence and presence of the proteins were recorded with 16 scans using a recycle delay of 3 s. […]

[2] = tested on: yeast S. cerevisiae Sin3 PAH1 and PAH3 domains; experiment: Ligand-detected NMR, yeast Sin3 PAH1 and PAH3; type: binding; conditions: FIG. 27
Protocol: as §1

[3] = Mouse liver microsome stability test; type: in vitro ADME; conditions: 1 mg/mL hepatic microsomes
Protocol: Mouse liver microsome (MLM) half-life measurements were performed by Scripps Florida Pharmacology Core, according to their protocols [Lamberto et al 2017]. 1 mg/mL hepatic microsomes was used to test compounds.
To assess whether E6R may be suitable for testing the effect of HDAC inhibition via new mechanisms in mouse, the half-life […] and intrinsic clearance (Clint) of this compound was first measured using a standard microsomal metabolic assay where sunitinib was used as a control [Lamberto et al 2017]. In this setting, compound degradation is induced by concentrated microsomes isolated from mouse liver. In particular, these hepatic extracts contain the cytochrome P450 system that is primarily responsible for first pass metabolism in vivo.

## C[C@@H](NC(=O)c1c(O)n2ccccc2nc1=O)c1ccccc1 [E6R, 4-hydroxy-2-oxo-N—((R)-1-phenylethyl)-3,4-dihydro-2H-pyrido[, 2-a]pyrimidine-3-carboxamide]
[1]
  binding to yeast Sin3 PAH2 by NMR: Sin3 PAH2 binder; also recorded: bound state
[2]
  binding to other PAH domains of yeast Sin3 by NMR: can bind
[3]
  half-life in mouse liver microsomes: 17 min

Source: patent US20240299393A1, “SMALL MOLECULE DISRUPTORS OF PROTEIN INTERACTIONS IN HISTONE DEACETYLASE COMPLEXES” (Dana-Farber Cancer Institute, Inc., priority 2021, published 2024)
